Results published in patent publication US11033535B2, “Oxadiazoles and thiadiazoles as TGF-β inhibitors” (Southern Research Institute, priority 2017, dated 2021).
Where two headings read alike, the source gives them in different places.

Test: Pharmacokinetic evaluation following a single oral and intravenous administration
Type: in vivo, CD1 mouse
Conditions: for concentration at 1 h / concentration at 2 h / concentration at 4 h / concentration at 8 h / concentration at 24 h / AUC(0-inf) / AUC(0-t) / Cmax / MRT inf / half-life: CD1, mouse, plasma, po, 5 mg/kg; for concentration at 1 h / concentration at 2 h / concentration at 4 h / concentration at 8 h / concentration at 24 h: Table 5, PO Dose: 5 mg/kg
Method: A NMP stock solution was prepared by adding 1.136 mL of NMP to 5.68 mg of compound no. 42140 with vortexing and sonification, to obtain a solution with a concentration at 5 mg/mL of 42140:01. Next, to prepare an intravenous formulation, 0.100 mL of the 5 mg/mL stock solution was placed in a new vial. 0.100 mL of NMP and 0.400 mL of PEG400 were added with vortexing and sonification, followed by addition of 0.400 mL of saline with vortexing and sonification. […] 42140:01. Alternatively, to prepare an oral formulation, 0.200 mL of the 5 mg/mL stock solution was placed in a new vial. 0.400 mL of PEG400 was added with vortexing and sonification, followed by addition of 0.400 mL of saline with vortexing and sonifiction. […] 42140:01.
(§1) Briefly, the desired serial concentrations of working solutions were achieved by diluting a stock solution of the compound with 100% acetonitrile. 3 μL of working solutions (5, 10, 20, 50, 100, 500, 1000, 5000, 10000 ng/mL) were added to 30 μL of the blank CD1 mouse plasma to achieve calibration standards of 0.5-1000 ng/mL (0.5, 1, 2, 5, 10, 50, 100, 500, 1000 ng/mL) in a total volume of 33 μL. Five quality control samples at 1 ng/mL, 2 ng/mL, 5 ng/mL, 50 ng/mL and 800 ng/mL for plasma were prepared independently of those used for the calibration curves. These QC samples were prepared on the day of analysis in the same way as calibration standards.
Next, 33 μL standards, 33 μL QC samples, and 33 μL unknown samples (30 μL plasma with 3 μL blank solution) were added to 200 μL of acetonitrile containing IS mixture for precipitating protein, respectively. Then the samples were vortexed for 30 s. After centrifugation at 4 degree Celsius, 4000 rpm for 15 min, 3 μL of supernatant was injected into the LC/MS/MS system for quantitative analysis.
HPLC analysis was performed using 100% water with 0.1% formic acid (Solution A) and 100% acetonitrile with 0.1% formic acid (Solution B) with a flow rate of 0.6 mL/min.
A NMP stock solution was prepared by adding 2.092 mL of NMP to 10.46 mg of […] with vortexing and sonification, to obtain a solution with a concentration at 5 mg/mL of […]. Next, to prepare an intravenous formulation, 0.100 mL of the 5 mg/mL stock solution was placed in a new vial. 0.100 mL of NMP and 0.400 mL of PEG400 were added with vortexing and sonification, followed by addition of 0.400 mL of saline with vortexing and sonification. […] 42320:01. Alternatively, to prepare an oral formulation, 0.200 mL of the 5 mg/mL stock solution was placed in a new vial. 0.400 mL of PEG400 was added with vortexing and sonification, followed by addition of 0.400 mL of saline with vortexing and sonifiction. […] 42320:01.
as §1, with “50 ng/mL,” for “50 ng/mL”

[1] = Mouse 5, read-out: Concentration
[2] = Mouse 6, read-out: Concentration
[3] = mean, read-out: Concentration, Mean
[4] = Mouse 4, read-out: Concentration
[5] = Table 4, IV Dose: 1 mg/kg, Mouse 1
[6] = Table 4, IV Dose: 1 mg/kg, Mouse 2
[7] = Table 4, IV Dose: 1 mg/kg, Mouse 3
[8] = Table 4, IV Dose: 1 mg/kg, mean
[9] = Table 6, PO Dose: 5 mg/kg, Mouse 4
[10] = Table 6, PO Dose: 5 mg/kg, Mouse 5
[11] = Table 6, PO Dose: 5 mg/kg, Mouse 6
[12] = Table 6, PO Dose: 5 mg/kg, mean

CNCc1ccc(C[C@H](NC(C)=O)c2nnc(-c3cccc(OC(F)(F)F)c3)s2)cc1 [Compound 42140, N-(2-(4-((methylamino)methyl)phenyl)-1-(5-(3-(trifluoromethoxy)phenyl)-1,3,4-thiadiazol-2-yl)ethyl)acetamide]
concentration at 1 h [1]: 129 ng/mL | concentration at 1 h [2]: 136 ng/mL | concentration at 1 h [3]: 127 ng/mL | concentration at 2 h [4]: 139 ng/mL | concentration at 2 h [1]: 140 ng/mL | concentration at 2 h [2]: 175 ng/mL | concentration at 2 h [3]: 151 ng/mL | concentration at 4 h [4]: 103 ng/mL | concentration at 4 h [1]: 112 ng/mL | concentration at 4 h [2]: 123 ng/mL | concentration at 4 h [3]: 113 ng/mL | concentration at 8 h [4]: 72.7 ng/mL | concentration at 8 h [1]: 91.4 ng/mL | concentration at 8 h [2]: 93.5 ng/mL | concentration at 8 h [3]: 85.9 ng/mL | concentration at 24 h [4]: 29.8 ng/mL | concentration at 24 h [1]: 22.7 ng/mL | concentration at 24 h [2]: 29.6 ng/mL | concentration at 24 h [3]: 27.4 ng/mL | AUC(0-inf) (Table 6, PO Dose: 5 mg/kg, Mouse 4, read-out: AUCInf): 2110 ng·h/mL | AUC(0-t) (Table 6, PO Dose: 5 mg/kg, Mouse 4, read-out: AUClast): 1620 ng·h/mL | Cmax (Table 6, PO Dose: 5 mg/kg, Mouse 4, read-out: Cmax): 139 ng/mL | MRT inf (Table 6, PO Dose: 5 mg/kg, Mouse 4, read-out: MRTInf—obs): 15.8 h | half-life (Table 6, PO Dose: 5 mg/kg, Mouse 4, read-out: T1/2 (converted)): 11.5 h | AUC(0-inf) (Table 6, PO Dose: 5 mg/kg, Mouse 5, read-out: AUCInf): 2060 ng·h/mL | AUC(0-t) (Table 6, PO Dose: 5 mg/kg, Mouse 5, read-out: AUClast): 1790 ng·h/mL | Cmax (Table 6, PO Dose: 5 mg/kg, Mouse 5, read-out: Cmax): 140 ng/mL | MRT inf (Table 6, PO Dose: 5 mg/kg, Mouse 5, read-out: MRTInf—obs): 11.4 h | half-life (Table 6, PO Dose: 5 mg/kg, Mouse 5, read-out: T1/2 (converted)): 8.47 h | AUC(0-inf) (Table 6, PO Dose: 5 mg/kg, Mouse 6, read-out: AUCInf): 2380 ng·h/mL | AUC(0-t) (Table 6, PO Dose: 5 mg/kg, Mouse 6, read-out: AUClast): 1960 ng·h/mL | Cmax (Table 6, PO Dose: 5 mg/kg, Mouse 6, read-out: Cmax): 175 ng/mL | MRT inf (Table 6, PO Dose: 5 mg/kg, Mouse 6, read-out: MRTInf—obs): 13.1 h | half-life (Table 6, PO Dose: 5 mg/kg, Mouse 6, read-out: T1/2 (converted)): 9.71 h | AUC(0-inf) (Table 6, PO Dose: 5 mg/kg, mean, read-out: AUCInf, Mean): 2190 ng·h/mL | AUC(0-t) (Table 6, PO Dose: 5 mg/kg, mean, read-out: AUClast, Mean): 1790 ng·h/mL | Cmax (Table 6, PO Dose: 5 mg/kg, mean, read-out: Cmax, Mean): 151 ng/mL | MRT inf (Table 6, PO Dose: 5 mg/kg, mean, read-out: MRTInf—obs, Mean): 13.4 h | half-life (Table 6, PO Dose: 5 mg/kg, mean, read-out: T1/2, Mean (converted)): 9.9 h | Tmax (CD1, plasma, Table 6, PO Dose: 5 mg/kg, Mouse 4): 2 h | AUClast/D [5]: 462 h·ng/mL per mg/kg | AUC—% Extrap—obs [5]: 17.0% | Cl_obs [5]: 29.9 mL/min/kg | AUClast/D [6]: 389 h·ng/mL per mg/kg | AUC—% Extrap—obs [6]: 19.8% | Cl_obs [6]: 34.3 mL/min/kg | AUClast/D [7]: 394 h·ng/mL per mg/kg | AUC—% Extrap—obs [7]: 11.6% | Cl_obs [7]: 37.4 mL/min/kg | AUClast/D, Mean [8]: 415 h·ng/mL per mg/kg | AUC—% Extrap—obs, Mean [8]: 16.1% | C0, Mean [8]: 101 ng/mL | Cl_obs, Mean [8]: 33.9 mL/min/kg | AUClast/D [9]: 324 h·ng/mL per mg/kg | AUC—% Extrap—obs [9]: 23.4% | F [9]: 78.0% | AUClast/D [10]: 358 h·ng/mL per mg/kg | AUC—% Extrap—obs [10]: 13.4% | F [10]: 83.3% | AUClast/D [11]: 393 h·ng/mL per mg/kg | AUC—% Extrap—obs [11]: 17.4% | F [11]: 95.9% | AUClast/D, Mean [12]: 358 h·ng/mL per mg/kg | AUC—% Extrap—obs, Mean [12]: 18.1% | F, Mean [12]: 85.7%
